These results are taken from patent US20070037887A1, “Blockade of mtor to prevent a hormonal adaptive response” (University of Virginia Patent Foundation, priority 2003, published 2007).

For series [1] the following is noted: doses needed to inhibit tumor growth; cited from earlier work.
Another series concerns mTOR-mLST8. Nature of the series: Coimmunoprecipitation of mLST8 with mTOR, compound added to cell extracts. As to conditions: only at the highest concentrations investigated. In kind it is binding. On the procedure:
FIGS. 13A & 13B represent data showing FTS promotes raptor dissociation and inhibits mTOR activity in cell extracts. 293T cells were transfected with pcDNA3 alone (Vec.) or with a combination of pcDNA3AU1-mTOR, pcDNA33HA-Raptor, and pcDNA33HA-mLST8. Extracts of the cells were incubated with increasing concentrations of FTS before AU1-mTOR was immunoprecipated. Samples of the immune complexes were incubated with [γ-^32P]ATP and recombinant [His^6]PHAS-I, then subjected to SDS-PAGE and transferred to an immobilon membrane. After obtaining a phosphorimage of the membrane to detect ^32P-PHAS-I, the membrane was immunoblotted with PThr^36/45 antibodies. […]
FIGS. 14A & 14B represent data showing the relative effects of increasing concentrations of FTS and GTS on mTOR activity and the association of mTOR and raptor. Samples of extracts from 293T cells overexpressing AU1-mTOR, HA-raptor, and HA-mLST8 were incubated for 1 h with increasing concentrations of FTS (●, ▴, ▪) or GTS (∘, Δ, □) before immunoprecipitations were conducted with anti-AU1 antibodies. mTOR kinase activity (●, ∘) was determined by measuring ^32P incorporation into [His^6]PHAS-I in immune complex kinases assays performed with [γ-^32P]ATP (see FIG. 14A). The relative amounts of HA-raptor (▴, Δ) and HA-mLST8 (▪, □) that coimmunoprecipitated with AU1-mTOR were determined after immunoblotting with anti-HA antibodies (see FIG. 14B). […]

As for `CC(C)=CCC/C(C)=C/CC/C(C)=C/CSc1ccccc1C(=O)O` [FTS, farnesylthiosalicylic acid], in series [1], the animal weight result was “does not cause a reduction of animal weight” and the toxicity entry is “non-toxic”. Further, in the series on mTOR-mLST8, the “amounts of transfected and endogenous mLST8 that coimmunoprecipitated with mTOR” value is recorded as “modestly decreased”.
